We go through 4 molecules from patent US20050080020A1, “Hydroxylated indirubin derivatives” (priority 2002, published 2005).

Structures are written as SMILES. Where two headings read alike, the source gives them in different places.

Series [1] is described as follows: solubility in physiological saline (pH 7.4). The class given is physicochemical.
Another series concerns tumor cells. As to the kind of experiment: inhibition of growth of tumor cells. Format: cell-based. The settings on record: relative to parent compounds.
Another series can be described thus: log P (octanol/water). The class given is physicochemical.
For series [2], the system named is cytochrom P450 dependent liver monooxygenases.
Series [3] relates to human solid tumors implanted into nude mice. Conditions: cited from earlier work.
The mark [4] stands for this setting: nude mice, comparable dosage, cf. PCT/EP00/03210.

With `Cc1cc2c(cc1O)NC(=O)C2=C1Nc2ccccc2C1=O` [6-hydroxy-5-methylindirubin], in series [1], the “increase of solubility versus parent compound 5-methylindirubin (factor)” value is given as “more than 2000” and the “solubility in physiological saline” value is “up to 240 mg/l”. In the series on tumor cells, the “inhibiting growth of tumor cells, compared with the parent compounds” value is listed as “at least as effective”. For the same molecule, the “log P (octanol/water)” value in the series “log P (octanol/water)” came to 1.6.

For `Cc1cc2c(cc1O)NC(=O)C2=C1Nc2c(O)cccc2C1=O` [6,7′-dihydroxy-5-methylindirubin], the “inhibiting growth of tumor cells, compared with the parent compounds” value in the series on tumor cells is given as “at least as effective”.

Turning to `Cc1ccc2c(c1)/C(=C1/Nc3ccccc3C1=O)C(=O)N2` [5-methylindirubin], the “solubility in physiological saline” value in series [1] was determined as 0.1 mg/l. Moreover, the “metabolism (oxidative, liver microsomes)” value in series [2] (liver microsome preparations from cows, pigs, rats and human liver samples) is recorded as “rapidly metabolized”. Further, in series [3] (setting [4]), the “effectiveness on human solid tumors implanted into nude mice” value is reported as “highly effective” and the “toxicity (body weight loss)” value is “without any perceptible toxicity”. Also, the “log P (octanol/water)” value in “log P (octanol/water)” is listed as 1.1.

For the molecule `O=C1Nc2ccccc2/C1=C1/Nc2ccccc2C1=O` [indirubin], the “metabolism (oxidative, liver microsomes)” value in series [2] was “not metabolized to a detectable extent”. Also, in series [3] (mouse, in vivo), the “toxicity (body weight loss)” value is “remarkably toxic”.
